According to ChEMBL document CHEMBL1201862, “PubChem BioAssay data set” (2004):
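Briefly, cells in 96-well plates were exposed to five compound concentrations for 48 h, and endpoints were estimated by linear interpolation. At the GI50, growth is halved.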 Activity calls are given as the source filed them. No stated cut-off is given here; in the data, active = GI50 up to about 1.1 µM and inactive = higher.

Key:
Assay in all cases: growth of human tumour cells (NCI), 48 h
HOP-18 = tested on: HOP-18
LXFL 529 = tested on: LXFL 529
DLD-1 = tested on: DLD-1
SNB-78 = tested on: SNB-78
XF498 = tested on: XF498
DMS-273 = tested on: DMS-273
RXF 631 = tested on: RXF 631
DMS-114 = tested on: DMS-114

Compound | GI50 (HOP-18) | GI50 (LXFL 529) | GI50 (DLD-1) | GI50 (SNB-78) | GI50 (XF498) | GI50 (DMS-273) | GI50 (RXF 631) | GI50 (DMS-114)
[N-]=[N+]=Nc1ccc(S(=O)(=O)Oc2cc(OS(=O)(=O)c3ccc(N=[N+]=[N-])cc3)cc(OS(=O)(=O)c3ccc(N=[N+]=[N-])cc3)c2)cc1 | > 100 µM (inactive) | > 100 µM (inactive) | > 100 µM (inactive) | > 100 µM (inactive) | > 100 µM (inactive) | > 100 µM (inactive) | > 100 µM (inactive) | > 100 µM (inactive)
C=C1CC2(CCS(=O)(=O)c3ccccc32)OC1=O (centres undefined) | 3.63 µM (inactive) | 4.4 µM (inactive) | 12.5 µM (inactive) | 9.51 µM (inactive) | 13.2 µM (inactive) | 16.5 µM (inactive) | 20.7 µM (inactive) | 3.94 µM (inactive)
COCCOc1cc(C)cc(/C=C(C)/C=C/C2=C(C)CCCC2(C)C)n1 | > 100 µM (inactive) | 45.8 µM (inactive) | > 100 µM (inactive) | 81.3 µM (inactive) | 43.6 µM (inactive) | 48.5 µM (inactive) | 59.8 µM (inactive) | 28.1 µM (inactive)
NNC(=O)C(=O)NN=C(C(Cl)(Cl)CO)C(Cl)(Cl)CO | > 100 µM (inactive) | 28.2 µM (inactive) | 22.6 µM (inactive) | 21.5 µM (inactive) | 16.6 µM (inactive) | 65.9 µM (inactive) | 21.3 µM (inactive) | –
CN1N=CSC12C(=O)N(c1ccccc1)C(=O)N2c1ccccc1 (centres undefined) | < 0.01 µM (active) | > 100 µM (inactive) | > 100 µM (inactive) | > 100 µM (inactive) | > 100 µM (inactive) | > 100 µM (inactive) | > 100 µM (inactive) | > 100 µM (inactive)
